Experimental data from patent US12595253B2, “Benzamides of pyrazolylamino-pyrimidinyl derivatives, and compositions and methods thereof” (LYNK PHARMACEUTICALS CO. LTD., priority 2019, dated 2026).

Key:
[1] = Mini-pig dermal pharmacokinetic study; type: in vivo, Guangxi Bama mini-pigs; conditions: topical administration
Excerpt: The aim of this study was to obtain the topical distribution of test articles in mini-pig after topical administration. Test articles were formulated in 50% PEG400, 10% transcutol and 40% PEG3350 (50% in water), and then applied to male Guangxi Bama mini-pigs (17-20 kg). Twenty-four hour prior to dosing, the hair of the mini-pig was shaved in left and right sides of the back. Two areas at least 5 cm apart at each side of the back were exposed (a total of four areas, each of which was about 112 cm^2). At the time zero, the test article was dosed to the exposed skins with […]. After dosing, the blood and skin samples were collected at 0.5, 1, 3, 6 hour. The blood was taken via venipuncture, and collected to the tubes containing heparin sodium as the anticoagulant. Exposed skin was washed with soap and water before skin sample was collected. Upon the dosed skin the punch biopsy from the epidermis layer to the muscle layer were taken at each time point. Epidermis, dermis, subcutis and subcutaneous muscle were quickly separated, weighed and frozen in dry ice. Epidermis and dermis were homogenized in 1:3 (w/v) normal saline. Homogenized samples were extracted with 3 fold volumes of acetonitrile and quantified against a standard curve with LC-MS/MS system.

JAK1 = molecular target: T1, JAK1 (Homo sapiens, UniProt P23458); assay: JAK1 microfluidic kinase assay (Caliper EZ Reader II, FAM labeled peptide substrate); type: biochemical; conditions: IC50 JAK1 (5 nM) (1 m MATP), JAK1 5 nM, 1 mM ATP
T1 construct: purchased Carna Biosciences
T1 sequence (P23458 whole entry): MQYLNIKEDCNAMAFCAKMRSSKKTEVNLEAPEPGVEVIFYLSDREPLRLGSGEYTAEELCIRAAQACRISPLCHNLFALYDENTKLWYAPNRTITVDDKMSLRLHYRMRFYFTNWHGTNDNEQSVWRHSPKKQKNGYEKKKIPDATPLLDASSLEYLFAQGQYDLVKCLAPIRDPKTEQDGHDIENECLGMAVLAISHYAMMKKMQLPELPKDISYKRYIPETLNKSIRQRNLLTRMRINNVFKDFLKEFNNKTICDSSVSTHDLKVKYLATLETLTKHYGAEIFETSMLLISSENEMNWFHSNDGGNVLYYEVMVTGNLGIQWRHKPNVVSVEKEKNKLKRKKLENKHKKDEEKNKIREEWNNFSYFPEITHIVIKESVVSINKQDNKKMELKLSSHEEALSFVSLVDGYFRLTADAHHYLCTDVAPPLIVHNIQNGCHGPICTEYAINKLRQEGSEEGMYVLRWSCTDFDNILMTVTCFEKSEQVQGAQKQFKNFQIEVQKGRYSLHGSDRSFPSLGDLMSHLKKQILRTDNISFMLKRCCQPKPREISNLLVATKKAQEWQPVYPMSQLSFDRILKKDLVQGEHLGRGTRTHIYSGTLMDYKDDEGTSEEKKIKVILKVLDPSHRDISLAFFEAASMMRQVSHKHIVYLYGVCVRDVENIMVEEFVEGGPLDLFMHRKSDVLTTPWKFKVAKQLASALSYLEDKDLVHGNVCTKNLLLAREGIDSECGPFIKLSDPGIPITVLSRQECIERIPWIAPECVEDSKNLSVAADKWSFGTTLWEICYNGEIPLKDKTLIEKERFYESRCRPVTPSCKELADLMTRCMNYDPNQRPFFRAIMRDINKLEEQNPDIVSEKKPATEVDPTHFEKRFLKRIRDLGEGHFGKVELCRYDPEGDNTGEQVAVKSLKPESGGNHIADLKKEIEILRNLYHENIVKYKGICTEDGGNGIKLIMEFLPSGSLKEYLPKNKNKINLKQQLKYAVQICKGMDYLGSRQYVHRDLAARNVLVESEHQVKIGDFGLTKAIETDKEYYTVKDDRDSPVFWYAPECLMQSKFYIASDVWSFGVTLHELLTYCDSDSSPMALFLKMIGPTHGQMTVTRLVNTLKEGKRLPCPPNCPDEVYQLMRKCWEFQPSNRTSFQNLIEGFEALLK
Procedure, shortened: (§1)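 3-fold serial dilutions, top 5 μM, 1% DMSO final; 10 min preincubation with enzyme, RT. Buffer: 50 mM HEPES, 0.01% Brij35, 10 mM MgCl2, 2 mM DTT. Enzyme batch tuned to 10% peptide conversion. EDTA stop, mobility-shift readout, IC50 fit.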

JAK2 = molecular target: T2, JAK2 (Homo sapiens, UniProt O60674); assay: JAK2 microfluidic kinase assay (Caliper EZ Reader II, FAM labeled peptide substrate); type: biochemical; conditions: IC50 JAK2 ([…]) (1 mM ATP), 1 mM ATP
T2 construct: purchased Carna Biosciences
T2 sequence (O60674 whole entry): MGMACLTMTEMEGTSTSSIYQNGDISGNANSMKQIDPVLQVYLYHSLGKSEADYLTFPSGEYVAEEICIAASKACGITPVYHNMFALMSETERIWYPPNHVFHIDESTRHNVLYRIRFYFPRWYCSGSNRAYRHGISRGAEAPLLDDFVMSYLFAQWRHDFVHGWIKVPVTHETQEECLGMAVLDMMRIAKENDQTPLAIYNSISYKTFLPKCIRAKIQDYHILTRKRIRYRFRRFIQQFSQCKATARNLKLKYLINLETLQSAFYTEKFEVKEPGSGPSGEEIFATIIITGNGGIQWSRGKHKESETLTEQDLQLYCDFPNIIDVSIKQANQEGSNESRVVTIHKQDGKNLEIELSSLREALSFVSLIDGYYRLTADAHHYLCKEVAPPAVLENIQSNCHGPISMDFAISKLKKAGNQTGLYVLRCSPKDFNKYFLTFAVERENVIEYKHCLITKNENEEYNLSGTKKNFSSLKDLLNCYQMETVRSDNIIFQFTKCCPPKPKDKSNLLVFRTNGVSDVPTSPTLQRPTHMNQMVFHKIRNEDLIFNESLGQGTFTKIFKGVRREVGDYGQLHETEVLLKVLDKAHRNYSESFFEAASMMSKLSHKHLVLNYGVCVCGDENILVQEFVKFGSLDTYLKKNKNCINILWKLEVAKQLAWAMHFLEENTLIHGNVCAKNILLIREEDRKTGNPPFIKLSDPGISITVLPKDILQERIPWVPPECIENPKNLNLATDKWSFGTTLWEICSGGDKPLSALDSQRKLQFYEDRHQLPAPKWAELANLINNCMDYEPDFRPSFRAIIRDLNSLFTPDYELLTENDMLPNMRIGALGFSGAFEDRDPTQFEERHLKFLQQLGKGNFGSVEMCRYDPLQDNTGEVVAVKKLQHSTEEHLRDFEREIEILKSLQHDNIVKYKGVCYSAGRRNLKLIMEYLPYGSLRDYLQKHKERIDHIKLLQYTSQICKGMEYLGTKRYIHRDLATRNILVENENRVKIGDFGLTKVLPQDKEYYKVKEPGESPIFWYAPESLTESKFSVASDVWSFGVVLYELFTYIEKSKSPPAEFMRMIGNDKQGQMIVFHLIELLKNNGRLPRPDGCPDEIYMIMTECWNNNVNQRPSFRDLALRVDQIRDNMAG
Procedure, shortened: as §1

[2] = Liver microsomes study, Phase I stability (RLM); type: in vitro ADME, rat; conditions: pH 7.4; rat liver microsomes 0.5 mg/mL, 1 μM test article; read-out: RLM Clint
Procedure, shortened: (§2)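 Rat or human liver microsomes were incubated with test article, and reactions started with an NADPH regenerating system. Samples at 0, 10, 30 and 90 minutes were quenched with cold acetonitrile and analyzed by LC/MS/MS. T½ and CLint came from the ln(% remaining) versus time slope, scaled by protein concentration.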

TYK2 = molecular target: T3, TYK2 (Homo sapiens, UniProt P29597); assay: TYK2 microfluidic kinase assay (Caliper EZ Reader II, FAM labeled peptide substrate); type: biochemical; conditions: IC50 TYK2 ([…]) (1 mM ATP), TYK2 […], 1 mM ATP
T3 construct: purchased Carna Biosciences
T3 sequence (P29597 whole entry): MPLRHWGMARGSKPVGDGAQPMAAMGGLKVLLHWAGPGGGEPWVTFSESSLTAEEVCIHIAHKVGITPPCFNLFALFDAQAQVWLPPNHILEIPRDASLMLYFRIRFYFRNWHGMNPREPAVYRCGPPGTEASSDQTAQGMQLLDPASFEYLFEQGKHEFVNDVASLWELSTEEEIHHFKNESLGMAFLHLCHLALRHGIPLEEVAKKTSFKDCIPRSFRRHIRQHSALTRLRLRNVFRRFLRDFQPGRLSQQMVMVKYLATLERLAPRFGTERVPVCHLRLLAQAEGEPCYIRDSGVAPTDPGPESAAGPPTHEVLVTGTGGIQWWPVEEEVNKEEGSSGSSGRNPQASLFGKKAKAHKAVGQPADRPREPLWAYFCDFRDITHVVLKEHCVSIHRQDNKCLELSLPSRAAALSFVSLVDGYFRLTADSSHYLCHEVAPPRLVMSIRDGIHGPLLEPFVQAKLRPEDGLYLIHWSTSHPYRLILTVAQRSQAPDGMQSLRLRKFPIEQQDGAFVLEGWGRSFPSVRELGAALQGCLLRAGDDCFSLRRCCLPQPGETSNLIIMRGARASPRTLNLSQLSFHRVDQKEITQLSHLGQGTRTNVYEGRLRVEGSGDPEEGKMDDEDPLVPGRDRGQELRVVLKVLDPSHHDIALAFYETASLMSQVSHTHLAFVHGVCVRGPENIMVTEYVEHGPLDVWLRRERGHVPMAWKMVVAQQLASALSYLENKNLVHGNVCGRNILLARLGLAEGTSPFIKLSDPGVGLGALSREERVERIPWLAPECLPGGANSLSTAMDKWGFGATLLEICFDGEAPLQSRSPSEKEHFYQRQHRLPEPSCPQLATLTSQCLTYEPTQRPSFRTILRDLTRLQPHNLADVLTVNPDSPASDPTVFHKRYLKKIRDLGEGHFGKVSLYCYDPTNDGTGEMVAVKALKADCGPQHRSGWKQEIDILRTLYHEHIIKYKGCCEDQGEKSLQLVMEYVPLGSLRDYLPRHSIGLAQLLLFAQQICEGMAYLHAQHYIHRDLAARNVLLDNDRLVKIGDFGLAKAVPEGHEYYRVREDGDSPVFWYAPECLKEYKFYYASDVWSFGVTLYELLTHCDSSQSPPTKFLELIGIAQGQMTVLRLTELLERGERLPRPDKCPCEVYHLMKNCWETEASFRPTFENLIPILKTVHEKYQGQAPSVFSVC
Procedure, shortened: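 Human JAK enzymes in 50 mM HEPES, 0.01% Brij35, 10 mM MgCl2, 2 mM DTT, tuned to 10% conversion of FAM-peptide; compounds (3-fold dilutions, top 5 μM, 1% DMSO) pre-incubated 10 min. Reaction times: JAK1 120 min, JAK2 20 min, JAK2V617F 30 min, TYK2 10 min; EDTA stop, microfluidic conversion read, IC50 from % inhibition curves.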

[3] = Liver microsomes study, Phase I stability (HLM); type: in vitro ADME, human; conditions: pH 7.4; human liver microsomes 0.5 mg/mL, 1 μM test article; read-out: HLM Clint
Procedure, shortened: as §2

AUC(0-t) ([1]; male, Guangxi Bama, minipig, topical or ocular, 25 μL/m^2 at 6 ml/mL, plasma, read-out: Plasma AUC0-last): 17.3 ng·h/mL
Dermis/plasma ratio (AUC) [1]: 273X
Epiermis/plasma ratio (AUC) [1]: 4396X
IC50 (JAK1): 15.2 nM
IC50 (JAK2): < 0.25 nM
microsomal CLint at 1 μM [2]: 69.4 µL/min/mg
IC50 (TYK2): 1.07 nM
microsomal CLint at 1 μM [3]: 456 µL/min/mg
Structure (SMILES): Cc1cnc(Nc2cnn(C3CC(C)(C)OC(C)(C)C3)c2)nc1-c1ccc(C(=O)N[C@@H](C)C#N)cc1 [Example 173, (S)—N-(1-cyanoethyl)-4-(5-methyl-2-((1-(2,2,6,6-tetramethyltetrahydro-2H-pyran-4-yl)-1H-pyrazol-4-yl)amino)pyrimidin-4-yl)benzamide]
